From US20030039980A1, “Assays for determination of functional binding of compounds to receptors” (priority 2000, published 2003)

What was measured:
[1] = target: T1, human PPARα ligand binding domain (GST-PPARα-LBD) (Homo sapiens, UniProt Q07869); experiment: in vitro PPARα/SRC-1 binding assay (GST-PPARα-LBD / SRC-Luc complex captured on glutathione-sepharose beads, luciferase readout)
T1 construct: made in house; host or cells: E. coli BL21(DE3)pLysS
T1 sequence (Q07869 164-468): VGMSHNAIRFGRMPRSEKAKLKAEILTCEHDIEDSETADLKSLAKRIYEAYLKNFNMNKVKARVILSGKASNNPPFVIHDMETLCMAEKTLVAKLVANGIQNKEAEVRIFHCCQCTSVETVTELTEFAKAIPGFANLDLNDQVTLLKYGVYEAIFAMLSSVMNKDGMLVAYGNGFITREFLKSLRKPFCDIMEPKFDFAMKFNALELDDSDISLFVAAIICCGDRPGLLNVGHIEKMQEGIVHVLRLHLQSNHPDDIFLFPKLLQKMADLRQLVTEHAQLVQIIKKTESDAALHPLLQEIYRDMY
T1 sequence (Q15788 631-763 partner limits assumed): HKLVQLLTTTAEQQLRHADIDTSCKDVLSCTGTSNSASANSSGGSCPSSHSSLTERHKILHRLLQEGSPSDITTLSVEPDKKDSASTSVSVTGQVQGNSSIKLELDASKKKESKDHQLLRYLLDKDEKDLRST
Excerpt: For this example, the peroxisome proliferator-activated receptor-α (PPARα) nuclear receptor was chosen. The PPAR LBD was expressed in bacteria as a GST fusion protein (GST-PPARα-LBD) for use in the assay (FIG. 1). Also chosen was a known PPARα coactivator, SRC-1 (Takeshita Endocrinology 137:3594-3597 (1996)). SRC-1 was expressed as a GST fusion protein also containing a firefly luciferase moiety (GST-SRC-Luc). The GST moiety was subsequently cleaved away from purified GST-SRC-1-Luc protein to yield a purified SRC-Luc protein (FIG. 1). A known PPARα ligand, GW2331, was also chosen for establishing the assay.
The GST-PPARα-LBD expression plasmid was prepared as follows: the human PPARα ligand binding domain including the hinge region (amino acids 164-468, accession #S74349) was PCR amplified from HepG2 first-strand cDNA using synthetic primers (SEQ ID:1 and SEQ ID:2) and native Taq polymerase. The primers were tagged with BamHI (5′) and NotI (3′) restriction sites to facilitate cloning. PCR fragments were cloned directly into pGEM®-T (Promega Corp), screened by diagnostic restriction digests, and confirmed by DNA sequence analysis. A combination of clones was used to generate a complete, error-free clone. The PPARα hinge/ligand binding domain clone was then transferred into pGEX-4T-3 (Amersham Pharmacia Biotech) as a BamH I/Not I fragment to create an in-frame fusion with GST. […]

[2] = target: T2, human PPARβ ligand binding domain (GST-PPARβ-LBD) (Homo sapiens, UniProt Q03181); experiment: in vitro PPARβ/SRC-1 binding assay (GST-PPARβ-LBD / SRC-Luc complex captured on glutathione-sepharose beads, luciferase readout); conditions: each ligand at final 5 μM; FIG. 3
T2 construct: made in house
T2 sequence (Q03181 136-441): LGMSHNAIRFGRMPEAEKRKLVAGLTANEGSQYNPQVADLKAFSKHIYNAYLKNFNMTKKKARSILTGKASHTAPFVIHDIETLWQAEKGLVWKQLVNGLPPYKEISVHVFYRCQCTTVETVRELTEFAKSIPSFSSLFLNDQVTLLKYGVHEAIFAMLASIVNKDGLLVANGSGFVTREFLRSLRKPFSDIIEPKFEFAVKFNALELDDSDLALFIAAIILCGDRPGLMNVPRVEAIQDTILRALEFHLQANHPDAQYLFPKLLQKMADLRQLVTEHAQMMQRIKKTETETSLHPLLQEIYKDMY
T2 sequence (Q15788 631-763 partner limits assumed): T1 sequence (Q15788 631-763 partner limits assumed)

binding of ligand by GST-PPARα-LBD (luciferase activity of the isolated complex with SRC-Luc) ([1]; each ligand at final 5 μM, FIG. 3): efficiently
amount of GST-PPARα-LBD/GW2331 ligand/SRC-Luc complex (luciferase activity, light units) as the ligand concentration was increased ([1]; ligand at 0.001, 0.01, 0.1, 1.0, 10.0 and 100.0 μM, 2 h at 4° C., FIG. 2): also increased
binding of ligand by GST-PPARβ-LBD (luciferase activity of the isolated complex with SRC-Luc) [2]: roughly equal efficiency
SMILES: CCCCCCCN(CCc1ccc(OC(C)(CC)C(=O)O)cc1)C(=O)Nc1ccc(F)cc1F (stereo not drawn) [GW2331, spec/2-(4-[2-(3[2,4-Difluorophenyl]-1-heptylureido)ethyl]phenoxy)-2-methylbutyric acid]
